{"source": "patent US5770623A", "about": "“Argine antagonists for inhibition of systemic hypotension associated with nitric oxide production or endothelial derived relaxing factor” (Board of Regents, The University of Texas System, priority 1995, dated 1998)", "key": {"[1]": {"system": "murine endothelial cells exposed to Gamma-Interferon and TNF (nitric oxide production)", "experiment": "Inhibition of nitrite production by MBEC exposed to IFN (100 U/ml) and TNF (500 U/ml)", "assay_type": "cell-based", "details": "for IC50: Mus musculus, Endothelial cell", "procedure": "Endothelial cells--MBEC's were isolated from murine brain microvessels and cultured on gelatin-coated tissue culture dishes in DME/F12 media supplemented with 2% PPPHS, 5% FBS (Hyolone), 50 μg/ml ECGF (Biomed Tech), and 10 U/ml heparin (Sigma) as previously described (Belloni et al. 1989). The endothelial derivation of MBEC's was determined by the presence of a non-thrombogenic surface to platelets and immunofluorescent staining for Factor VIII related antigen. MBEC's were used between passage 6-9 for all experiments.\nNitrite Assay--MBE cells were cultured on gelatin-coated well plates (Corning) in 100 μl of culture medium and treated with cytokines at 3 days post-confluence. After 48 hours, nitrite production was determined by a colorimetric assay. […] All treatments were performed in triplicate and data presented as the mean value±standard deviation. […]\nproduction by murine endothelial cells exposed to GammaInterferon (100\nU/ml) and TNF (500 U/ml) in vitro."}, "[2]": {"system": "mongrel dogs with TNF-induced hypotension", "experiment": "TNF-induced hypotension in anesthetized dogs", "assay_type": "in vivo, dog", "details": "for effect of L-arginine on NMMA pressor effect (words): TNF- and NMMA-treated dogs", "procedure": "Recombinant human TNF specific activity 2×10^7 units/mg, was from the Niposn Chemical Corporation, Tokyo, Japan. TNF was administered at a dose of 10 mcg/kg in a volume of 10 ml of phosphate buffered saline containing 2 mgs/ml of dog albumin. […] Arginine was obtained from Sigma Chemical Company, St. Louis, Mo.\n(§1) Four conditioned mongrel dogs, 2 males and 2 females, weighing 28 to 30 kgs, were studied. Care of the animals were in accordance with the recommendation of the American Association for Accreditation of Laboratory Animals [DHEW(DHHS) publication no. (NIH) 78-23, revised, 1978]. On the day of the experiment, the dogs were fasted overnight. They were anesthetized with phenobarbital (10 mg/kg). They were then intubated orally with a #10 fr. endotracheal tube and ventilated with a Harvard pump ventilator at a rate of 12 breaths per minute and a tidal volume of 15 ml/kg. An arterial line was percutaneously placed in the femoral artery on the day of the experiment.\n(§2) Mean (electronic) and phasic systemic arterial pressures (SAP) were continuously recorded on a Hewlett-Packard recording system (model 7758B) using strain gauge manometers (Hewlett-Packard model 1290A) which were connected to the arterial line. Heart rate (HR) was determined from an EKG tracing and continuously recorded on the Hewlett-Packard recording system. Oxyhemoglobin saturation (SaO2) was obtained using a pulse oximeter (BIOX 111, Boulder, Colo.). continuous time-series records of SAP, HR, and SaO2 were obtained using a Lab Master analog-to-digital convertor (16 channel, 12 bit, 30 kHz; Scientific Solutions, Inc.) sampling at 55 Hz and storing the 6 sec averages on a magnetic disk."}, "[3]": {"system": "nitroglycerin infused dogs", "experiment": "Nitroglycerin-induced hypotension in dogs (Example 2)", "assay_type": "in vivo, dog", "procedure": "as §1, §2\nThis was followed by a compensatory decrease in the HR with a return of the BP to baseline. The NMMA-induced bradycardia lasted 31 minutes. This response was not observed in animals which had been previously treated with TNF. In a subsequent experiment (FIG. 7a) the hypotensive response to TNF was especially severe, with a decrease in BP from 125 mm to 36 mmHg. […] This was associated with a decrease in the HR from 101 to 92 beats/minute. […] In a second control study nitroglycerin was infused at a rate of 28 μg/kg/minute, IV, to lower the blood pressure to the same level as that observed with tumor necrosis factor (FIG. 7c)."}, "[4]": {"system": "guinea pig pulmonary artery rings", "experiment": "Relaxation of preconstricted guinea pig pulmonary artery rings"}, "rabbit aortic rings": {"system": "rabbit aortic rings", "experiment": "ACh-induced relaxation of isolated rabbit aortic rings", "details": "for effect on ACh-induced vasorelaxation: NE-preconstricted rabbit aorta, FIG. 11", "from_the_text": "FIG. 9b compares concentration-response relationships for the same set of mono- and disubstituted arginine analogs as FIG. 9a, plus an additional dimethyl analog with the two methyl groups on different guanidino nitrogens. The test is for inhibition of ACh-induced vasorelaxation in isolated rabbit aortic rings. The points plotted represent means±S.E. of the maximum responses to ACh observed in the presence of the indicated concentrations of analogs (n=4).\nGuinea pig pulmonary artery (GP PA), rat and rabbit aorta (Ao), and dog coronary (CA) and femoral artery (FA) were precontracted with NE (1 μM) and relaxed with a single concentration of ACh. Concentration of ACh: GP PA 1 μM, rat Ao […], rabbit Ao 0.3, dog CA […] and […] 0.1 μM. […] The concentrations of L-citrulline (L-cit), D-arginine (D-arg) and L-arginine (L-arg) were all 0.5 mM. Bars are mean values±SEM (n=4-6).\nFIG. 11 contains representative physiograph tracings which depict ACh-induced relaxation of NE-preconstricted rings prepared from rabbit aorta (upper panel) and human internal mammary artery (lower panel)."}, "[5]": {"system": "isolated guinea pig heart", "experiment": "Histamine-induced nitrite release and coronary flow in isolated perfused guinea pig heart", "details": "for effect on coronary flow (vasodilation): histamine-elicited; for effect on EDRF/NO (nitrite) release: histamine-induced, FIG. 13", "procedure": "Histamine was administered as a rapid bolus injection into the aorta and net nitrite release during the subsequent 2.5 minutes was determined."}, "endotoxemic dogs": {"system": "endotoxemic dogs", "experiment": "Endotoxin-induced hypotension in dogs (Example 5)", "assay_type": "in vivo, dog", "procedure": "Administration of ET to dogs was clearly more toxic and less predictable than TNF administration. […] Within 1.5 minutes the blood pressure increased by 33±2.5 mmHg."}}, "note": "“Also recorded” adds a separate entry of the source. Like-named read-outs stand apart in the source and are kept apart here."}
{"smiles": "N=C(N)NCCC[C@H](N)C(=O)O", "note": "[L-arginine, reference compound]", "values": [{"measurement": "reversal of NMMA inhibition of nitrite production", "setting": "[1]; 8 mM L-arginine vs 1 mM NMMA", "value": "completely reversing the effects of 1 mM NMMA"}, {"measurement": "nitrite concentration upon adding L-arginine back to arginine-free medium", "setting": "[1]; MBEC exposed to TNF and IFN", "value": "increased in a dose dependent manner"}, {"measurement": "blood pressure after L-arginine", "setting": "[2]; FIG. 7a, after TNF and NMMA", "value": 37, "unit": "mmHg"}, {"measurement": "effect of L-arginine on NMMA pressor effect (words)", "setting": "[2]", "value": "antagonized; also recorded: completely reversed; also recorded: rapid decrease of blood pressure"}, {"measurement": "effect of L-arginine on NMMA pressor effect (words)", "setting": "[2]; listed as arginine", "value": "reversed"}, {"measurement": "effect of L-arginine after NMMA", "setting": "[3]; nitroglycerin infused dogs", "value": "reversed this modest effect"}, {"measurement": "effect on relaxation in the presence of NMMA", "setting": "[4]; excess L-arginine", "value": "restored relaxation in the presence of NMMA"}, {"measurement": "effect on ACh-induced vasorelaxation", "setting": "rabbit aortic rings", "value": "restores relaxation"}, {"measurement": "effect on coronary flow (vasodilation)", "setting": "[5]", "value": "restored"}, {"measurement": "effect on EDRF/NO (nitrite) release", "setting": "[5]", "value": "restoration"}, {"measurement": "effect of L-arginine after NMMA", "setting": "endotoxemic dogs; L-arginine 100 mg/kg", "value": "fall precipitously below the pre-NMMA level"}]}
{"smiles": "CNC(=N)NCCC[C@H](N)C(=O)O", "note": "[NMMA, N^G -methyl-L-arginine]", "values": [{"measurement": "concentration giving maximal inhibition of nitrite production", "setting": "[1]; MBEC exposed to TNF and IFN", "value": 1, "unit": "mM"}, {"measurement": "effect of NMMA on nitrite production", "setting": "[1]; MBEC exposed to TNF and IFN", "value": "inhibited"}, {"measurement": "IC50", "setting": "[1]; 48 h, read-out: ED50% (effective dose that inhibited 50% of the nitrite production), murine endothelial cells, Gamma-Interferon (100 U/ml) and TNF (500 U/ml), in vitro", "value": 337, "unit": "µM"}, {"measurement": "IC50", "setting": "[1]; read-out: E.D. 50% for inhibition of nitrite production, MBEC exposed to TNF and IFN", "value": 330, "unit": "µM"}, {"measurement": "blood pressure after NMMA", "setting": "[2]; FIG. 7a, TNF-treated", "value": 115, "unit": "mm"}, {"measurement": "increase in blood pressure by NMMA", "setting": "[2]; FIG. 7a, TNF-treated", "value": 79, "unit": "mm"}, {"measurement": "time to pressor effect", "setting": "[2]; after TNF", "value": "≤ 2", "unit": "min"}, {"measurement": "pressor response in TNF-hypotensive vs normotensive dogs", "setting": "[2]; compared with normotensive dogs", "value": "much more dramatic in dogs with TNF-induced hypotension than in normotensive dogs"}, {"measurement": "reversal of TNF-associated hypotension", "setting": "[2]; dogs, TNF 10 mcg/kg", "value": "blocked; also recorded: reverse the hypotension"}, {"measurement": "blood pressure increase by NMMA", "setting": "[3]; nitroglycerin 28 μg/kg/minute IV", "value": 14, "unit": "mm"}, {"measurement": "antagonism of nitroglycerin hypotension", "setting": "[3]; similar level of hypotension", "value": "not antagonized"}, {"measurement": "effect on vasodilatation by ACh, LTD4 and HIST", "setting": "[4]; endothelium-dependent vasodilators", "value": "blocks endothelium-dependent relaxation; also recorded: blocks the action of ACh, LTD4 and HIST"}, {"measurement": "inhibition of EDRF/NO synthesis", "setting": "[4]; guinea pig pulmonary artery rings, 1 μM NE, ACh", "value": "served as inhibitors of EDRF/NO synthesis"}, {"measurement": "inhibition of EDRF/NO in vascular preparation", "setting": "[4]; guinea pig pulmonary artery, NMMA 100 μM", "value": "arginine reversible inhibitor of EDRF/NO"}, {"measurement": "effect on vasodilatation by SNP", "setting": "[4]; sodium nitroprusside, endothelium-independent", "value": "does not inhibit"}, {"measurement": "effect on ACh-induced vasorelaxation", "setting": "rabbit aortic rings", "value": "attenuate ACh-induced vasorelaxation"}, {"measurement": "inhibition of EDRF/NO in vascular preparation", "setting": "rabbit aortic rings; rabbit aorta, NMMA 100 μM", "value": "arginine reversible inhibitor of EDRF/NO"}, {"measurement": "effect on coronary flow (vasodilation)", "setting": "[5]", "value": "attenuated"}, {"measurement": "effect on EDRF/NO (nitrite) release", "setting": "[5]", "value": "inhibition"}, {"measurement": "effect on EDRF/NO (nitrite) release", "setting": "[5]; listed as L-NMA", "value": "inhibits EDRF/NO release"}, {"measurement": "blood pressure with readministration of NMMA", "setting": "endotoxemic dogs; FIG. 24", "value": "maintained"}, {"measurement": "increase in blood pressure by NMMA", "setting": "endotoxemic dogs; NMMA 5 mg/kg after ET 1 μg/kg", "value": "33±2.5", "unit": "mmHg"}, {"measurement": "time to blood pressure increase", "setting": "endotoxemic dogs; NMMA 5 mg/kg after ET 1 μg/kg", "value": "≤ 1.5", "unit": "min"}, {"measurement": "increase in blood pressure by NMMA", "setting": "endotoxemic dogs; lethal shock, 100 μg/ml endotoxin, NMMA 20 mg/kg", "value": 65, "unit": "mm"}]}
